Reference: patent publication US20090220996A1, “In vitro Assay Methods for Classifying Embryotoxicity of Compounds” (RELIANCE LIFE SCIENCES PVT LTD., priority 2007, published 2009)
Values after ≈ are worked out from the molar mass of the structure shown. Like-named read-outs stand apart in the source and are kept apart here.

Assays:
[1] = system: human embryonic stem cells (hES); test: Cytotoxicity in undifferentiated human embryonic stem cells, day 15 (FACS with PI / CyQUANT); format: cell-based; conditions: for IC50: Homo sapiens, Embryonic stem cell
Description: In general, the presently disclosed embryotoxicity testing protocols comprise the following sequence of steps. Studies using embryoid bodies generally comprise: a) preparation of various concentrations of test solutions in culture medium or a desired solvent; b) preparation of a cell suspension by enzymatic digestion of human embryonic stem cell colonies; c) culturing the cell suspension for formation of embryoid bodies in the presence and absence of one or more test solutions, and incubation for several days (e.g., three days) in hanging drops; d) cultivation of the embryoid bodies in bacteriological petri dishes for several days (e.g., two days) under controlled conditions; e) transfer of the embryoid bodies into 96 well plates and incubation for several days (e.g., 10 days) in the presence of one or more test solutions; and f) detection of the viability of the embryoid bodies after 15 days by MTT assay, or fluorescent or luminescent method, and isolation of RNA for studying gene expression. Studies using human foreskin fibroblasts (HFF) generally comprise: a) preparation of various concentrations of test solutions in culture medium or a desired solvent; b) plating of HFF cells in 96 well plates in the presence or absence of one or more test solutions for 15 days, changing the media and test solutions every 2 days; and c) detection of the viability of HFF after 15 days by MTT assay, or fluorescent or luminescent method. Studies using human embryonic stem cells generally comprise: a) preparation of various concentrations of test solutions in culture medium or a desired solvent; b) preparation of hES colonies by manual passage in the presence and absence of one or more test solutions, and incubation for 15 days on matrigel coated plates changing the media and test solutions every 2 days; c) disruption of the colonies after 15 days with enzymes to form single cells; d) labeling of single cells with a fluorescently-labeled dye, such as propidium iodide (“PI”); and e) detection of the percentage viability with FACS as a measure of cytotoxicity. […]
After 2 hours incubation, 150 μl of assay medium containing the appropriate concentration of test chemical (150 μl volume contains 1.333× the final chemical concentration) was added. Appropriate blanks without the chemicals were used along with the test samples The cell cultures were incubated at 5% CO2 and 37° C. for 3 days. On day 3, test solution was removed with the care, so that the cell layer on the bottom of the wells was not disturbed. Next, 200 μl of freshly prepared test solution (final concentration/well as on day 0) was added, and the cell cultures were incubated at 5% CO2 and 37° C. for 3 days. This process was repeated on days 6, 9, and 12. Determination of cell growth inhibition was performed at day 15 of the assay using MTT reagent. Cytotoxicity for hES cells was calculated using flow cytometry. Briefly, cells were placed on matrigel coated plates along with different test compound concentrations. Media was replaced every 3 days along with the different test compound concentrations. At day 15, hES cells were collected by trypsinization, and after washing with PBS, the cells were incubated with PI for 10 minutes in the dark. Percent viability for various test compound concentrations was calculated using flow cytometry.
Cytotoxicity analysis of three cell types (hES, hEBs and HFF) was evaluated using the CyQUANT assay following compound treatment. All data were the mean of three independent experiments for each cell type. Data is represented as the mean±SE.

mouse ES cells = conditions: Table 4; from the EST (Genschow, et al., 2000); cited from earlier work
[2] = system: lineage marker gene expression in hEBs; test: Gene expression profile of day 15 hEBs (RT-PCR, densitometry) and ID50; format: cell-based, human; conditions: for lineage markers down-regulated / affected: summary statement, hEBs
Description: On the 15th day, differentiated cells that are adherent are washed with 2 ml DPBS and trypsinized (0.05%) from 24 well plates and collected in a tube. The tube is centrifuged at 2000 rpm for 10 minutes to pellet the cells. The total RNA is isolated using TRIzol (Invitrogen Corporation) following the manufacturer's instructions. The RNA is quantified by absorbance at 260 nm, and 1-2 μg of RNA from control and drug treated cells are converted to cDNA using Superscript cDNA synthesis kit (Invitrogen Corporation) following the manufacturer's instructions. cDNA was used to study the expression of genes specific for ectoderm, mesoderm, and endoderm, by an appropriate method, such as RT-PCR, qPCR, or microarray. Markers indicative of each lineage are used.
The changes in gene expression in the presence or absence of the drug are compared. Changes in a mesodermal marker representative of cardiogenesis is used to calculate ID50 values of the tested compounds, and densitometry of the band intensities from RT-PCR, or CT values from qPCR, are used to calculate the ID50 values.
Various compounds were tested for their effect on the gene expression profiles of homeobox transcription factor Nanog (“NANOG”; GenBank Accession Number AB093576), neurofilament, heavy polypeptide 200 KDa (“NEFH” or “NFH”; GenBank Accession Number X15307), keratin-15 (“KRT15”; GenBank Accession Number X07696), actin, alpha, cardiac muscle (“ACTC1”; GenBank Accession Number NM_005159), msh homeobox 1 (“MSX1”; GenBank Accession Number BC067353), CD34 molecule (“CD34”; GenBank Accession Number BC039146), alpha fetoprotein (“AFP”; GenBank Accession Number J00077), serum albumin (“ALB”; GenBank Accession Number M12523), bone morphogenetic protein 4 (“BMP4”; GenBank Accession Number NM_130850), and bone morphogenetic protein 5 (“BMP5”; GenBank Accession Number M60314) in hEBs. Glyceraldehyde-3-phosphate dehydrogenase (“GAPDH”; GenBank Accession Number J04038) was used as a control.
RNA was extracted from different drug treated groups using the trizol method. One microgram of RNA was converted to cDNA using superscript reverse transcriptase. PCR was performed with the initial denaturation cycle at 94° C. for 5 min, followed by 35 cycles of 94° C. for 30 seconds, annealing temperature varying (Table 1) for 30 seconds, 72° C. for 1 minute, followed final extension at 72° C. for 5 min. Electrophoresis was performed on 1.5% agarose gels. Paired comparisons were conducted using a paired t test, and all data are presented as mean values±S.E. Differences were considered significant at a 0.05 level of confidence.
For calculating IC50-hES and ID50-hES cells, one petri dish was used per concentration of the test chemical, as well as for the untreated control (assay medium) and the solvent control. The lid was turned carefully to its regular position and put on top of a petri dish filled with 5 ml PBS. […] The changes in gene expression in the presence or absence of the drug were compared. Changes in mesodermal marker representative of cardiogenesis was used to calculate ID50 values of the tested compounds, and the densitometry of the band intensities performed in case of RT-PCR, or CT values in case of qPCR, were used to calculate the ID50 values.

[3] = cited from earlier work
[4] = 360 h, Table 3, mean of 3 experiments, day 15, read-out: IC50-hES
[5] = Table 4, CyQuant cell viability assay, read-out: Human EST IC50 - hES
[6] = 0.1 μg/ml, day 15 hEBs, FIG. 5B

COc1ccc2c(c1)c(CC(=O)O)c(C)n2C(=O)c1ccc(Cl)cc1 [Indomethacin, indomethacin]
IC50 [1, 4]: 73.4 ± 3.4 µg/mL (≈ 205 µM)
IC50 [1, 5]: 73.4 ± 3.4 µg/mL (≈ 205 µM)
Mouse EST IC50 - mES (mouse ES cells): 29 µg/mL

O=c1[nH]cc(F)c(=O)[nH]1 [5-Fluorouracil, 5-fluorouracil]
IC50 [1, 4]: 0.546 µg/mL (≈ 4.2 µM)
survival percentage ([1]; hES, 1 μg/ml, day 15, FIG. 3A): 30%
effect on cell viability ([1]; hES, up to 0.01 μg/ml, FIG. 3A): no major effect
down-regulation of ALB gene expression ([2]; 0.001 μg/ml, day 15 hEBs, FIG. 5B): 40%
decrease in NFH levels ([2]; 0.01 μg/ml, day 15 hEBs, FIG. 5B): 60%
down-regulation of AFP gene expression [2, 6]: 80%
down-regulation of MSX1 expression [2, 6]: 15%
down-regulation of NANOG expression [2, 6]: 25%
gene expression levels of ACTC1, KRT, CD34, BMP4, and BMP5 ([2]; 0.0001-0.1 μg/ml, day 15 hEBs, FIG. 5B): no change
lineage markers down-regulated / affected [2]: all the three lineage markers are effected

Cn1c(=O)c2c(ncn2C)n(C)c1=O [Caffeine, caffeine]
IC50 [1, 4]: 110 ± 12.5 µg/mL (≈ 566 µM)
IC50 [1, 5]: 110 ± 12.5 µg/mL (≈ 566 µM)
survival ([1]; hES, 500 μg/ml, FIG. 3B): about 10%
decrease of AFP expression ([2]; 50 μg/ml, day 15 hEBs, FIG. 6B): 80%
decrease of NFH expression ([2]; 50 μg/ml, day 15 hEBs, FIG. 6B): 80%
decrease of keratin expression ([2]; 50 μg/ml, day 15 hEBs, FIG. 6B): 85%
decrease of ACTC1 expression ([2]; 500 μg/ml, day 15 hEBs, FIG. 6B): 40%
expression levels of NANOG, CD34, BMP4, MSX1, and BMP5 ([2]; day 15 hEBs, FIG. 6B): no significant change

CS(=O)(=O)OCCCCOS(C)(=O)=O [Busulfan, busulfan]
IC50 [1, 4]: 2.1 ± 0.6 µg/mL (≈ 8.53 µM)
IC50 [1, 5]: 2.1 ± 0.6 µg/mL (≈ 8.53 µM)
Mouse EST IC50 - mES (mouse ES cells): 2.1 µg/mL
Therap. range in human serum [3]: <0.6 µg/mL
Therap. range in human serum ([3]; listed as busulfan): less than 0.6 μg/ml

NC(=O)NO [Hydroxyurea, hydroxyurea]
IC50 [1, 4]: 2.6 ± 0.2 µg/mL (≈ 34.2 µM)
IC50 [1, 5]: 2.6 ± 0.2 µg/mL (≈ 34.2 µM)
Mouse EST IC50 - mES (mouse ES cells): 2.0 µg/mL
Therap. range in human serum [3]: <9.88 µg/mL

CC1(C)S[C@@H]2[C@H](NC(=O)Cc3ccccc3)C(=O)N2[C@H]1C(=O)O [Penicillin G, penicillin G]
IC50-hES ([1]; Table 3, mean of 3 experiments, day 15): 2013 ± 23.5 µg/mL (≈ 6020 µM)
Human EST IC50 - hES ([1]; Table 4, CyQuant cell viability assay): 2013 ± 23.5 µg/mL
cell survival ([1]; hES, 5000 μg/ml (highest dose), FIG. 3C): 1-2%
ALB levels ([2]; 10 μg/ml, day 15 hEBs, FIG. 7): decreased
AFP levels decreased to ([2]; 100 μg/ml, day 15 hEBs, FIG. 7): 40%
markers of ectoderm, mesoderm, and endoderm other than AFP and ALB ([2]; day 15 hEBs, FIG. 7A): no significant change
expression of AFP and ALB ([2]; highest dose (5000 μg/ml), day 15 hEBs, FIG. 7B): complete loss of expression
lineage markers down-regulated / affected [2]: only endodermal markers are down-regulated
Mouse EST IC50 - mES (mouse ES cells): 2950 µg/mL
Therap. range in human serum [3]: 300 to 500 µg/mL
